According to patent US11780822B2, “HDAC inhibitor solid state forms” (Viracta Subsidiary, Inc., priority 2019, dated 2023):
“Also recorded” adds a separate entry of the source.

Tests used:
Format in all cases: physicochemical
[1] = Thermal investigations (heating in DSC, residue analysed by XRPD or 1H NMR)
Description: A Mettler Toledo DSC 821 instrument was used for the thermal analysis operating with STARe™ software. The analysis was conducted in […], open aluminum pans, under nitrogen and sample sizes ranged from 1 to 10 mg. Typical analysis method was 20 to 250 at 10° C./minute.
Procedure: First experiment-A sample of compound 1 Form A containing 5.1% w/w water and 0.2% w/w ethanol (ca. 16 mg) was heated at a rate of +10° C./min from 20 to 160° C. to include the first endothermic event and exclude the second event (refer to FIG. 2).
(§1) Procedure: First event: A sample of compound 1 Form C (ca. 7 mg) was heated at a rate of +10° C./min from 20 to 120° C. to include the first endothermic event (refer to FIG. 9). The content of the spent crucible was expressed, the residue was analyzed by XRPD and the diffraction pattern was compared to the input diffraction pattern.
as §1, with “Third” for “Procedure: First”, “5” for “7”, “150°” for “120°”, “multiple thermal events” for “first endothermic event”
Procedure: First event: a sample of compound 1 Form E (ca. 8 mg) was heated at a rate of +10° C./min from 20 to 160° C. to include the first endothermic event and exclude the second event (refer to FIG. 11). The content of the spent crucible was expressed, the residue was analyzed by XRPD and the diffraction pattern was compared to the input diffraction pattern (see FIG. 12).

[2] = Competitive suspension equilibrations of Form A + Form B composites; details: stirred overnight
Description: Objective: Determine the fates of the Form A and Form B when equilibrated in ethanol under anhydrous and aqueous conditions at 20° C. and 40° C.
Procedure: Composites, prepared from equimolar amounts of Form A and Form B were charged to separate vials and ethanol (13 vol) or ethanol/water (10/3 v/v, 13 vol) were added. The two pairs of mixtures were stirred at 20° C. or 40° C. overnight.

[3] = Dynamic Vapor Sorption (DVS) analyses; details: for Hygroscopicity by DVS: 25° C., RH 0-90-0%; for Weight lost during the pre-equilibration: DVS at 25° C., drying 0% RH for 120 min
Description: Use the following parameters: • Equilibrium: dm/dt: 0.002%/min. (for min: 10 min and max: 180 min). • Drying: 0% RH for 120 min • RH (%) measurement step: 5% • RH (%) measurement step scope: 0-90-0% The criteria for hygroscopicity evaluation are listed in below: DVS analysis was performed on compound 1 Form A and compound 1 Form B to determine the degree of hygroscopicity. The results are provided in FIGS. 13A, FIG. 13B, FIG. 14A and FIG. 14B.

[4] = Suspension equilibration of single Form A and B under production conditions; details: 40° C., stirred overnight
Description: Objective: Determine the fates of single Form A and B when equilibrated in ethanol under anhydrous and aqueous conditions at 40° C.
Procedure: Form B and Form A were charged to separate vials. Ethanol/water (10/3 v/v, 13 vol) and ethanol (13 vol) were added, respectively. The mixtures were stirred at 20° C. or 40° C. overnight.

[5] = Anhydrous suspension equilibrations of Form A at 20° C. and 40° C.; details: stirred 7 to 10 days at 40° C.
Description: Objective: Examine the effect of suspension equilibration of compound 1 under anhydrous conditions at 20° C. and 40° C. and determine the physical form of the products.
Procedure: Compound 1 (ca 50 mg, 1.0 wt) and the appropriate solvent (1000 μl, 20 vol) were charged to separate vessels and two parallel banks of experiments were stirred for 7 to 10 days at 20° C. and 40° C. After this time the products were cooled, isolated by filtration, washed with recycled maturation solvent, dried under reduced pressure at 20° C. and analyzed by XRPD for evidence of alternative crystalline forms.

[6] = Effect of elevated humidity, desiccator analysis at equilibrium humidity; details: for Δwt. Percent: RH 75-80%; for Output Form designation (XRPD): after exposure to 75 to 80% RH at 18 to 23° C. for 72 h
Description: The effect of elevated humidity (75 to 80% RH at 18 to 23° C.) on the thermally dehydrated Form A residue from the preceding experiment, was examined via conventional desiccator analysis at equilibrium humidity. Compound 1 Form A (ca. 16 mg) was heated at a rate of +10° C./min from 20 to 160° C. to include the first endothermic event and exclude the second event (see FIG. 2). The content of the spent crucible was exposed to 75 to 80% RH (relative humidity) at 18 to 23° C. for 72 h. The corresponding weight changes were recorded and the internal conditions of the humidity enclosures were monitored. The absorbent increased in weight (refer to Table 4), but this was not accompanied by a significant change in the diffraction pattern, or dehydration event by DSC.

[7] = heated at +10° C./min from 20 to 160° C.

O=C(NO)c1cnc(N2C[C@@H]3[C@H](C2)[C@H]3NCc2ccc3cc(F)ccc3n2)nc1 [Form C, N-hydroxy 2-{6-[(6-fluoro-quinolin-2-ylmethyl)-amino]-3-aza-bicyclo[3.1.0]hex-3-yl}pyrimidine-5-carboxamide]
Form of residue after heating (XRPD) ([1]; heated at +10° C./min from 20 to 120° C.): consistent with an isomorphic desolvate/dehydrate
Form of residue after heating (XRPD) ([1]; heated at +10° C./min from 20 to 150° C.): converted into isostructural Form B

O=C(NO)c1cnc(N2C[C@@H]3[C@H](C2)[C@H]3NCc2ccc3cc(F)ccc3n2)nc1 [Form E, N-hydroxy 2-{6-[(6-fluoro-quinolin-2-ylmethyl)-amino]-3-aza-bicyclo[3.1.0]hex-3-yl}pyrimidine-5-carboxamide]
Form of residue after heating (XRPD) [1, 7]: consistent with Form B

O=C(NO)c1cnc(N2C[C@@H]3[C@H](C2)[C@H]3NCc2ccc3cc(F)ccc3n2)nc1 [Form A + Form B (1/1 w/w)]
Output form (XRPD) ([2]; Ethanol, 20° C.): B (Major
Output form (XRPD) ([2]; Ethanol, 20° C., listed as composite Form A+B): near complete conversion into Form B
Output form (XRPD) ([2]; Ethanol, 40° C.): Form B
Output form (XRPD) ([2]; Ethanol, 40° C., listed as composite Form A+B): complete turnover into single Form B
Output form (XRPD) ([2]; Ethanol/water (10/3 v/v), 20° C.): Form A
Output form (XRPD) ([2]; Ethanol/water (10/3 v/v), 20° C., listed as composite Form A+B): single Form A
Output form (XRPD) ([2]; Ethanol/water (10/3 v/v), 40° C.): Form A
Output form (XRPD) ([2]; Ethanol/water (10/3 v/v), 40° C., listed as composite Form A+B): single Form A

O=C(NO)c1cnc(N2C[C@@H]3[C@H](C2)[C@H]3NCc2ccc3cc(F)ccc3n2)nc1 [Form B, N-hydroxy 2-{6-[(6-fluoro-quinolin-2-ylmethyl)-amino]-3-aza-bicyclo[3.1.0]hex-3-yl}pyrimidine-5-carboxamide]
Hygroscopicity by DVS [3]: neither being hygroscopic
Form conversion at high water activity ([3]; 40° C., high water activity, stated among the DVS observations): promoted the conversion into Form A
Weight lost during the pre-equilibration [3]: 0.03 % w/w
Output form (XRPD) ([4]; Ethanol/water (10/3 v/v)): mixture Form A and B
Output form (XRPD) ([4]; Ethanol/water (10/3 v/v), listed as Form B (A0822-170-AC1)): A + B

O=C(NO)c1cnc(N2C[C@@H]3[C@H](C2)[C@H]3NCc2ccc3cc(F)ccc3n2)nc1 [Form A, N-hydroxy 2-{6-[(6-fluoro-quinolin-2-ylmethyl)-amino]-3-aza-bicyclo[3.1.0]hex-3-yl}pyrimidine-5-carboxamide]
Output form @ 40° C. (XRPD) ([5]; 1,4-dioxane (20 vol)): A + B
Output form @ 40° C. (XRPD) ([5]; 2-Propanol (20 vol)): A + B
Output form @ 40° C. (XRPD) ([5]; Acetone (20 vol)): A + B
Output form @ 40° C. (XRPD) ([5]; Anisole (20 vol)): A + B
Output form @ 40° C. (XRPD) ([5]; Butanol (20 vol)): A + B
Output form @ 40° C. (XRPD) ([5]; Chlorobenzene (20 vol)): A + B
Output form @ 40° C. (XRPD) ([5]; Cumene (20 vol)): A + B
Output form @ 40° C. (XRPD) ([5]; Dichloromethane (20 vol)): A + B
Output form @ 40° C. (XRPD) ([5]; Ethyl acetate (20 vol)): A + B
Output form @ 40° C. (XRPD) ([5]; Ethyl ether (20 vol)): A + B
Output form @ 40° C. (XRPD) ([5]; Heptane (20 vol)): A + B
Output form @ 40° C. (XRPD) ([5]; Isopropyl acetate (20 vol)): A + B
Output form @ 40° C. (XRPD) ([5]; Methyl acetate (20 vol)): A + B
Output form @ 40° C. (XRPD) ([5]; Nitromethane (20 vol)): A + B
Output form @ 40° C. (XRPD) ([5]; Propionitrile (20 vol)): A + B
Output form @ 40° C. (XRPD) ([5]; Tetrahydrofuran (20 vol)): A + B
Output form @ 40° C. (XRPD) ([5]; Trifluorotoluene (20 vol)): A + B
Output form @ 40° C. (XRPD) ([5]; tert-Butylmethyl ether (20 vol)): A + B
Form of residue after heating (XRPD) [1, 7]: consistent with Form B
State after heating (1H NMR) ([1]; heated at +10° C./min from 20 to 230° C., cooled): extensive degradation
Large exothermic event (DSC, confirmed by 1H NMR) ([1]; post heating to 200° C.): consistent with degradation
Hygroscopicity by DVS [3]: neither being hygroscopic; also recorded: not hygroscopic
Weight lost during the pre-equilibration [3]: ~0.25 % w/w
Output form (XRPD) ([4]; Ethanol): converted to Form B
Output form (XRPD) ([4]; Ethanol, listed as Form A (A0822-170-AD1)): Form B

O=C(NO)c1cnc(N2C[C@@H]3[C@H](C2)[C@H]3NCc2ccc3cc(F)ccc3n2)nc1 [Form A after heating up to 160° C.]
Δwt. Percent ([6]; 0 h @ 18-23° C.): 0.0% w/w
Δwt. Percent ([6]; 1 h @ 18-23° C.): 14.6% w/w
Δwt. Percent ([6]; 24 hr @ 18-23° C.): 13.2% w/w
Δwt. Percent ([6]; 72 hr @ 18-23° C.): 14.6% w/w
Output Form designation (XRPD) [6]: Isostructural
Output Form designation (XRPD) ([6]; listed as Form A dehydrate): did not revert back to Form A
